From patent US12269859B2, “Synthetic immune receptors and methods of use thereof” (Angeles Therapeutics, Inc., priority 2016, dated 2025)
Entries after “also recorded” stand apart in the source; their conditions may differ.

How the values were obtained:
[1] = test system: RAJI cells; test: GLuc cytotoxicity assay, RAJI-GLuc cells; assay type: cell-based, human
Method: (D) Assay for Cytotoxic Activity in vitro and in vivo: The uninfected T cells or those expressing a control vector or SIR are cocultured with the target cell lines expressing a non-secretory form of a luciferase (such as GLuc, NLuc, Turboluc 16 etc.) for 4-96 hours and induction of cell lysis examined by measuring the luciferase activity as described in PCT/US17/52344. Alternate methods for measurement of cytotoxic activity (e.g., ^51Cr release assay or LDH release assay) can be used as well. The activity of T cells expressing a SIR can be also assayed in vivo using appropriate xenograft models in immunodeficient mice.
Cell death assay. To measure cell death, a novel assay based on ectopic cytosolic expression of Gluc or NLuc was utilized as described in PCT/US17/52344 “A Non-Radioactive Cytotoxicity Assay”. The method involves expression of a reporter in a target cells in a manner so that it is preferentially retained within the healthy cells but is either released from dead and dying cells or whose activity can be preferentially measured in dead and dying cells. The preferred reporter for this assay are 1) non-secreted forms of luciferases from the copepods, such as Gaussia princeps, Pleuromamma abdominalis, Metridia pacifica, Metridia curticauda, Metridia asymmetrica, Metridia okhotensis, Metridia longa, Lucicutia ovaliformis, Heterorhabdus tanneri, and Pleuromamma scutullata 2) engineered luciferase reporters from deep sea shrimp, such as NanoLuc. The sequence of several such reporter vectors is provided in SEQ ID NO: 881 to SEQ ID NO: 887. The above vectors were used to generate retrovirus and lentiviruses which in turn were used to generate polyclonal population of several target cell lines stably expressing GLuc, NLuc, TurboLuc or MLuc7 following selection with appropriate antibiotics. Unless indicated otherwise, the target cells stably expressing the different luciferases (GLuc, Nluc, MLuc7 or TurboLuc16) were plated in triplicate in a 384 well plate in the media used for growing the target cells. Target cells which grow in suspension were generally plated at a concentration of 2-3×10^4 per well, while target cells which grow as adherent monolayers were plated at a concentration of 1-2×10^4 per well. Unless indicated otherwise, the target cells were cocultured with the genetically modified T cells (i.e. those expressing SIR or CAR) at an Effector:Target (E:T) ratio varying from 1:1 to 10:1 for 4 hours to 96 hours. In the case target cells grow as adherent cells (e.g., HeLa cells), they were allowed to attach to the bottom of the wells overnight before the T cells were added. T cells mediated induction of lysis of target cells was assayed by increase of luciferase activity as measured by BioTek synergy plate reader by directly injecting 0.5×CTZ assay buffer containing native coeloentrazine (Nanaolight).
CTZ assay. A 100× stock solution of native coelenterazine (CTZ; Nanolight, cat #303) was made by dissolving 1 mg of lyophilized CT powder in 1.1 ml of 100% Methanol supplemented with 30 μl of 6N HCl to avoid oxidation of CTZ with time. To make CTZ assay buffer, the 100× stock solution of CTZ was diluted to 0.5× concentration in PBS. Unless indicated otherwise, a total volume of 15 μl of the CTZ assay buffer (as prepared above) was added to each well of a 384-well white plate (Greiner, 384 well white plate cat #781075) containing cells expressing the non-secretory form of the luciferase in approximately 50-60 μl volume of medium and plates were read for luminescence in endpoint mode using BioTek synergyH4 plate reader. For 96 well plates, cells were plated in 200 μl of media and approximately 50 μl of 0.5×CTZ assay buffer was added. Unless indicated otherwise, the 0.5×CTZ assay buffer was used for assaying the activity of GLuc, TurboLuc16, and MLuc7. The CTZ assay buffer (diluted to 0.125× concentration) was also used for measurement of NLuc activity in some experiments (see below).

[2] = test system: target antigen-expressing cell line; test: Jurkat NFAT-GFP assay, coculture with target cell lines expressing the respective target antigen (summary Table 10A); assay type: cell-based, human; set-up: key: The signs +/−, +, 2+ etc. after the name of the cell lines indicate the relative degree of positivity on the Jurkat-NFAT-GFP assay as measured by the % GFP positive cells; +: relative degree of positivity on the Jurkat-NFAT-GFP assay as measured by the % GFP positive cells; 2+: relative degree of positivity on the Jurkat-NFAT-GFP assay as measured by the % GFP positive cells; details: relative % GFP positive cells; for NFAT-GFP ASSAY Positive Cell lines: RAJI: SIR-expressing Jurkat-NFAT-GFP cells cocultured with RAJI; for NFAT-GFP ASSAY Positive Cell lines: NALM6: SIR-expressing Jurkat-NFAT-GFP cells cocultured with NALM6
Method: (B) Induction of NFAT promoter driven GFP expression. The control vector- and SIR-expressing Jurkat-NFAT-GFP cocultured for 4-24 hours with the target antigen-expressing cell line (described above) and their ability to bind to the target antigen is assayed by measuring induction of GFP expression using Flow Cytometry. Cellular supernatant is collected and assayed for the induction of cytokines (e.g., IL2).
Jurkat NFAT-GFP Assay For Synthetic Immune Receptors. The Jurkat-NFAT-GFP cells are engineered in such a way that the IL-2 promoter, which carries NFAT binding sites, is cloned upstream of the GFP gene. These cells have been used to study signaling via TCR and CAR. The different SIRs were stably expressed in Jurkat NFAT-GFP cells by lentiviral mediated gene transfer, followed by selection with puromycin. The SIR-expressing Jurkat-NFAT-GFP cells were cocultured with the target cells at E:T ratio of approximately 1:2 for approximately 4 hours to 18 hours. When the interaction between SIRs and their target antigen results in activation of the NFAT pathway, GFP expression is induced.
Induction of GFP expression by coculturing of Jurkat-NFAT-GFP cells expressing different SIR constructs and the different target cells was studied essentially as described previously (Wu, Roybal, Puchner, Onuffer, & Lim, 2015). GFP expression was monitored by FACS analysis. A few representative examples of this assay are shown in the FIG. 13A-B. In panel A, control Jurkat-NFAT-GFP cells or those expressing SIRs targeting CD19 (clone ID 051716-I08), MPL (Clone ID: 040716-A07) and BCMA (Clone ID: 011116-A07) were incubated with RAJI (top), HEL (middle) or U266 (bottom) cells, respectively. […] In panel B, Jurkat cells expressing SIR targeting CDH6 (Clone ID: 051716-J05), CD276 (Clone ID: 050516-Q06) and Her2/neu (Clone ID: 050516-I03) were incubated with SKOV3 (top) and […] (middle and bottom) cells, respectively. […] The Jurkat-NFAT-GFP cells were engineered to express different SIRs targeting other antigens and the experiment repeated upon coculture with the target cells expressing their respective target antigen. The Jurkat-NFAT-GFP (parental) cells were used as control. The names of different SIRs, their SEQ ID NOs, component antigen binding domains and TCR chains can be determined by reference to Tables 7A-7H. A SIR is considered positive in the assay in case the SIR expressing Jurkat-NFAT-GFP cells show greater % GFP positive cells when cultured with the target cell line as compared to parental Jurkat-NFAT-GFP cells. […] The signs +/−, +, 2+ etc. after the name of the cell lines indicate the relative degree of positivity on the Jurkat-NFAT-GFP assay as measured by the % GFP positive cells after culture of the SIR expressing Jurkat-NFAT-GFP cells with that cell line. […] In addition, great diversity of response against the same target cell line is observed with Jurkat cells expressing SIRs containing different antigen binding domains targeting the same antigen (e.g., SIRs having antigen binding domains derived form different CD19 antibodies) even when the SIRs share the same TCR chains and linkers. Finally, Jurkat cells expressing SIRs targeting different antigens (e.g. CD19 vs CD20) show a diversitiy of response when exposed to the same target cell line. Thus, a diverse immune response can be generated against a single target cell by combining SIRs with different TCR chains, linkers, antigen binding domains and target specificity. Table 10A also summarizes the results of GLuc based T cell cytotoxicity assay observed with different SIRs when exposed to their target cell lines. […]

| Compound | NFAT-GFP ASSAY Positive Cell lines: RAJI [2] | lysis of target cells by increase of GLuc activity (in words) ([1]; E:T 10:1, 4 hours) | further results |
| --- | --- | --- | --- |
| C[C@@H]1CC[C@@]2(OC1)O[C@H]1[C@@H](O)[C@H]3[C@@H]4CC[C@H]5C[C@@H](O[C@@H]6O[C@H](CO)[C@H](O[C@@H]7O[C@H](CO)[C@@H](O)[C@H](O[C@@H]8OC[C@@H](O)[C@H](O)[C@H]8O)[C@H]7O[C@@H]7O[C@H](CO)[C@H](O)[C@H](O[C@@H]8O[C@H](CO)[C@@H](O)[C@H](O)[C@H]8O)[C@H]7O)[C@H](O)[C@H]6O)[C@H](O)C[C@]5(C)[C@H]4CC[C@]3(C)[C@H]1[C@@H]2C [digitonin, Digitonin, reference compound] | – | – | mean Gluc values ([1]; E:T 10:1, 4 hours): 3869 |
| CD8SP-CD19Bu12-vL-Gly-Ser-Linker-CD19Bu12-vH-V5-[hTCRb-WT]-F-P2A-PAC [SEQ ID NO:1022] | RAJI (+) | failed to induce lysis of RAJI cells | – |
| CD8SP-CD20-2F2-vL-[canine-TCRb-opt]-F-P2A-CD20-2F2-vH-[canine-TCRa-opt]-F-F2A-PAC [SEQ ID NO:1113] | RAJI (+/−) | effective induction of target cell lysis | – |
| CD8SP-FMC63-scFv-V5-[TCRb-S57C-opt1]-F-P2A-SP-FMC63-scFv-MYC-[TCRa-T48C-opt1]-T2A-Pac [SEQ ID NO:910] | RAJI (+/−) | – | – |
| CD8SP-FMC63-vL-G4Sx2-[hTCRa-S61R-opt]-F-F2A-FMC63-vH-G4Sx2-[hTCRb-R79G-opt]-F-P2A-PAC [SEQ ID NO:955] | RAJI (+/−) | – | – |
| CD8SP-FMC63-vL-Gly-Ser-Linker-FMC63-vH-Myc-[preTCRa-Del48]-F-F2A-PAC [SEQ ID NO:914] | RAJI (+) | – | – |
| CD8SP-FMC63-vL-Gly-Ser-Linker-FMC63-vH-V5-[hTCRb-S57C-opt]-F-P2A-PAC [SEQ ID NO:912] | RAJI (+/−) | failed to induce lysis of RAJI cells | – |
| CD8SP-FMC63-vL-Gly-Ser-Linker-FMC63-vH-V5-[hTCRb-S57C-opt]-F-P2A-SP-Myc-[hTCRa-T48C-opt]-F-F2A-PAC [SEQ ID NO:991] | +/− | – | NFAT-GFP ASSAY Positive Cell lines: NALM6 [2]: + |
| CD8SP-FMC63-vL-Gly-Ser-Linker-FMC63-vH-V5-[hTCRb-WT]-F-P2A-PAC [SEQ ID NO:911] | RAJI (+) | – | – |
| CD8SP-FMC63-vL-Myc2-[hTCRb-R79G-opt]-F-P2A-SP-FMC63-vH-Myc4-[hTCRa-S61R-opt]-F-F2A-PAC [SEQ ID NO:937] | RAJI (+/−) | – | – |
| CD8SP-FMC63-vL-Myc-[hTCRa-T48C-opt1]-F-F2A-FMC63-VH-V5-[hTCRb-C57C-opt1]-F-P2A-PAC [SEQ ID NO:902] | – | can induce effective lysis of the target cells | – |
| CD8SP-FMC63-vL-Streptag-[hTCRb-R79G]-F-P2A-SP-FMC63-vH-Myc4-[hTCRa-S61R]-F-F2A-PAC [SEQ ID NO:938] | RAJI (+/−) | – | – |
| CD8SP-FMC63-vL-V5-[hTCRb-S57C-opt]-F-P2A-SP-FMC63-vH-Myc-[hTCRa-T48C-opt]-F-F2A-PAC [SEQ ID NO:951] | – | induced effective target cell lysis; also recorded: Modest cytotoxicity | – |
| CD8SP-FMC63-vL-V5-[hTCRb-WT]-F-P2A-SP-FMC63-vH-Myc-[hTCRa-WT]-F-F2A-PAC [SEQ ID NO:922] | RAJI (2+) | fails to cause significant target cell lysis | lysis of target cells by increase of GLuc activity (in words) ([1]; E:T 1:1, 96 hours): fails to cause significant target cell lysis |
| CD8SP-FMC63-vL-V5-[mTCRb-opt]-F-P2A-SP-FMC63-vH-Myc-[mTCRa-opt]-F-F2A-PAC [SEQ ID NO:953] | – | increase in GLuc activity | lysis of target cells by increase of GLuc activity (in words) ([1]; E:T 1:1, 96 hours): increase in GLuc activity |
| IgHSP-FMC63-vH-[hTCRb-C57C-opt]-F-P2A-CD8SP-FMC63-VL-MYC-[hTCRa-T48C-opt]-F-F2A-Pac [SEQ ID NO:901] | RAJI(2+), NALM6(2+) | can also induce effective lysis of the target cells | NFAT-GFP ASSAY Positive Cell lines: NALM6 [2]: RAJI(2+), NALM6(2+) |
